These results are taken from PubChem BioAssay (NCI).

Holding throughout (assay): DTP human tumour cell line panel, 48 h
The subject of test [1] is T-47D breast.
The test system of test [2] is TK-10 renal.
Test [3] relates to SR leukemia.
Test [4] has as its system SF-295 CNS.
Test [5] has as its system EKVX NSCLC.
The test system of test [6] is HL-60(TB) leukemia.
Test [7] relates to DU-145 prostate.
Test [8] relates to OVCAR-3 ovarian.
Test [9] deals with ACHN renal.
The test system of test [10] is SK-MEL-2 melanoma.

Several values for one entry are separate records, joined by “and”; a condition that tells them apart may be missing. Equal entries are not always repeated.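 Compound exposure: 48 hours, 5 concentrations, 96-well plates. The concentration for 50% growth inhibition is given as GI50. The concentration for full growth arrest is given as TGI.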

On to `COc1ccc(N(C)c2nc(Cl)nc3ccn(C)c23)cc1`, for which the GI50 in test [1] was greater than 100 µM; in test [2], 91.3 µM; in [3], less than 0.01 µM; in [4] it was less than 0.01 µM; in test [5], less than 0.01 µM; in [6] it was less than 0.01 µM. Moreover, the GI50 in [7], in test [8] and in test [9] was less than 0.01 µM each time. Moreover, the TGI was greater than 100 µM in [1]; greater than 100 µM in [2]; greater than 100 µM in [3]; greater than 100 µM in [4]; greater than 100 µM in test [5]; less than 0.01 µM in test [6]. The TGI in [7], in test [8] and in [9] was greater than 100 µM throughout.

As to `CCOP(=O)(OCC)/C(C#N)=C/c1ccc[nH]1`, the TGI in test [10], in [2], in test [3], in test [4], in test [6] and in [8] was greater than 100 µM throughout. Also, the total growth inhibition concentration (TGI) in test [9] is greater than 100 µM.

On to `COc1cc(C2CC(c3ccc(Nc4ccnc5cc(Cl)ccc45)cc3)=NN2C=O)cc(OC)c1OC` (centres undefined), for which the GI50 in test [1] is 2.33 µM; in [2] it was 3.09 µM; in [3], 2.58 µM; in [4], 5.63 µM; in test [5], 11.7 µM; in test [6] it was 2.53 µM. The GI50 in test [7] was 6.63 µM; in test [8], 1.91 µM; in test [9], 3.24 µM. Also, the concentration for total growth inhibition (TGI) was 7.4 µM in test [1]; 9.4 µM in [2]; 6.49 µM in [3]; 27.7 µM in test [4]; greater than 100 µM in test [5]; 7.4 µM in test [6]. For the same compound, the TGI in test [7] was greater than 100 µM; in test [8], 3.4 µM; in [9] it was 10.6 µM.

For the compound `COc1ccc2cc3[n+](cc2c1OC)CCc1cc2c(cc1-3)OCO2`, the GI50 is 11.4 µM and 17.5 µM in test [10]; 1.88 µM in test [1]. Besides, the TGI was 29.5 µM and 42.2 µM and > 68 µM in test [1]; greater than 100 µM in test [2]; > 100 µM and 71.5 µM and > 75.6 µM in test [3]; > 100 µM and 147 µM in test [4]; > 100 µM and 175 µM in [5]; greater than 100 µM in test [7]. The same compound registered a TGI in [9] greater than 100 µM.

On to `C=C(C)[C@@H]1CC[C@]2(C(=O)O)CC[C@]3(C)[C@H](CC[C@@H]4[C@@]5(C)C[C@@H](CC#Cc6ccc(Br)cc6)C(=O)C(C)(C)[C@@H]5CC[C@]43C)[C@@H]12`, for which the GI50 in test [10] was 2.58 µM; in test [1] it was 9.02 µM; in test [2], 23.7 µM; in test [3], 9.33 µM; in test [4], 12.6 µM; in test [6] it was 22.4 µM. Besides, the GI50 in test [7] is 7.59 µM; in [8], 4.73 µM; in test [9], 13.5 µM. Further, the TGI is 9.48 µM in [10]; greater than 100 µM in test [1]; greater than 100 µM in test [2]; greater than 100 µM in test [3]; 81.1 µM in test [4]; greater than 100 µM in test [6]. For the same compound, the concentration for total growth inhibition (TGI) in test [7], in test [8] and in test [9] was greater than 100 µM in each case.

`C=CCC12CC(=O)C=C1CCC1(C2)OCCO1` (centres undefined): the TGI in test [10], in test [2], in [3], in [6], in test [8] and in test [9] was greater than 100 µM throughout.

As to `Cc1ccc(NC(=O)COC(=O)c2cccc3c(=O)c4ccccc4[nH]c23)cc1`, the TGI was greater than 100 µM in test [2]; 65.1 µM in test [3]; greater than 100 µM in test [4]; greater than 100 µM in test [5]; greater than 100 µM in test [6]; greater than 100 µM in test [8]. Moreover, the total growth inhibition concentration (TGI) in test [9] was greater than 100 µM.

Take `O=C1CCCC(=O)C1=C(O)CCCCCCCCCCc1ccccc1`: the concentration for total growth inhibition (TGI) is 49.1 µM in test [10]; greater than 100 µM in [2]; 71.9 µM in test [3]; greater than 100 µM in test [4]; greater than 100 µM in test [5]; 35.1 µM in [6]. In addition, the TGI in [8] and in test [9] was greater than 100 µM throughout.

`Cc1ccc([N+](=O)[O-])cc1NC(=O)C(=O)Cc1cc(=O)oc2cc(O)ccc12`: the TGI in test [10] was greater than 100 µM; in test [2], greater than 100 µM; in test [3] it was 94.2 µM; in test [4], greater than 100 µM; in [5] it was greater than 100 µM; in test [6], greater than 100 µM. The total growth inhibition concentration (TGI) in [8] and in test [9] was greater than 100 µM throughout.

On to `Oc1ccc2c3c1OC1C(=NN=C4CCC5(O)C6Cc7ccc(O)c8c7C5(CCN6CC5CC5)C4O8)CCC4(O)C(C2)N(CC2CC2)CCC314` (centres undefined), for which the total growth inhibition concentration (TGI) in test [10] was 18.9 µM; in [2], greater than 70.2 µM; in [3], 80.4 µM; in [4], 32.6 µM; in test [5] it was greater than 85.2 µM; in [6], 39.8 µM. Besides, the concentration for total growth inhibition (TGI) in [8] was 34.6 µM; in [9], greater than 100 µM.

With `CCCCCCCCCCCCSC(=NC)NC`, the GI50 is 2.04 µM in test [1]; 1.71 µM in test [2]; 1.37 µM in test [3]; 1.91 µM in [4]; 3.71 µM in test [5]; 1.86 µM in test [6]. Besides, the GI50 was 3.12 µM in [7], 2 µM in test [8] and 1.73 µM in [9]. The TGI in test [1] was found to be 4.77 µM; in [2] it was 3.49 µM; in test [3] it was 5.32 µM; in [4] it was 3.86 µM; in [5] it was 17.6 µM; in test [6], 4.41 µM. Moreover, the total growth inhibition concentration (TGI) in test [7] came out at 12.3 µM; in test [8] it was 4.82 µM; in test [9], 3.35 µM.

`Cc1[nH]n(-c2ccc(S(=O)(=O)O)cc2)c(=O)c1N=Nc1ccccc1`: the TGI in test [10], in [1], in test [2], in test [3], in test [4] and in test [5] was greater than 100 µM throughout. Besides, the TGI in [7], in test [8] and in test [9] was greater than 100 µM in each case.
